Drawing on PubChem BioAssay AID330 (DTP/NCI, 2004), this text covers T/C for 23 compounds.

The test system of the assay is P388 leukemia ip, CD2F1 mice, survival T/C. Briefly: NCI In Vivo Anticancer Drug Screen. Data for tumor model P388 Leukemia (intraperitoneal) in CD2F1 (CDF1) mice. Particulars: endpoint: median survival time, higher = longer survival. In outline:
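Mice carrying the transplanted tumor received test compound or vehicle. Survival was recorded in each group, and the value is the treated-group measurement divided by that of the vehicle-treated control group.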

Where [1] appears, read: dose: 12.5 mg/kg/injection, schedule: Q01DX005 (ip), vehicle: Klucel (hydroxypropylcellulose) (HPC).
The mark [2] stands for this setting: dose: 60.0 mg/kg/injection, schedule: Q01DX005 (ip), vehicle: saline with Tween-80.
The mark [3] stands for this setting: dose: 120.0 mg/kg/injection, schedule: Q01DX005 (ip), vehicle: saline with Tween-80.
Setting [4] is: dose: 50.0 mg/kg/injection, schedule: Q01DX009 (ip), vehicle: saline.
[5] abbreviates: dose: 100.0 mg/kg/injection, schedule: Q01DX009 (ip), vehicle: saline.
[6] abbreviates: dose: 200.0 mg/kg/injection, schedule: Q01DX009 (ip), vehicle: saline.
Where [7] appears, read: dose: 50.0 mg/kg/injection, schedule: Q01DX005 (ip), vehicle: saline with Tween-80.
Where [8] appears, read: dose: 100.0 mg/kg/injection, schedule: Q01DX005 (ip), vehicle: saline with Tween-80.
Setting [9] is: dose: 50.0 mg/kg/injection, schedule: Q01DX009 (ip), vehicle: Klucel (hydroxypropylcellulose) (HPC).
Where [10] appears, read: dose: 100.0 mg/kg/injection, schedule: Q01DX009 (ip), vehicle: Klucel (hydroxypropylcellulose) (HPC).
[11] abbreviates: dose: 200.0 mg/kg/injection, schedule: Q01DX009 (ip), vehicle: Klucel (hydroxypropylcellulose) (HPC).
Setting [12] is: dose: 240.0 mg/kg/injection, schedule: Q01DX005 (ip), vehicle: saline with Tween-80.
The mark [13] stands for this setting: dose: 100.0 mg/kg/injection, schedule: Q04DX003 (ip), vehicle: Klucel (hydroxypropylcellulose) (HPC).
Setting [14] is: dose: 200.0 mg/kg/injection, schedule: Q04DX003 (ip), vehicle: Klucel (hydroxypropylcellulose) (HPC).

The structures appear in SMILES notation. Where “and” joins values, the source holds several entries; their conditions need not be identical. Identical values can stand only once. Toxic doses and inconclusive results are not listed.

`COc1cc(NCCCCCCNC(C)C)c2ncccc2c1OC`: the T/C was 99 % of control (dose: 1.56 mg/kg/injection, schedule: Q01DX005 (ip), vehicle: Klucel (hydroxypropylcellulose) (HPC)); 105 % of control (dose: 3.12 mg/kg/injection, schedule: Q01DX005 (ip), vehicle: Klucel (hydroxypropylcellulose) (HPC)); 105 % of control (dose: 6.25 mg/kg/injection, schedule: Q01DX005 (ip), vehicle: Klucel (hydroxypropylcellulose) (HPC)); 105 % of control under setting [1].

Regarding `CCCCOc1ccc(NN=O)cn1`, the T/C is 106 % of control (dose: 3.12 mg/kg/injection, schedule: Q01DX009 (ip), vehicle: water); 92 % of control (dose: 6.25 mg/kg/injection, schedule: Q01DX009 (ip), vehicle: water); 99 % of control (dose: 12.5 mg/kg/injection, schedule: Q01DX009 (ip), vehicle: water); 93 % of control (dose: 25.0 mg/kg/injection, schedule: Q01DX009 (ip), vehicle: water); 92 % of control and 97 % of control (dose: 50.0 mg/kg/injection, schedule: Q01DX009 (ip), vehicle: water); 97 % of control (dose: 100.0 mg/kg/injection, schedule: Q01DX009 (ip), vehicle: water). Also, the T/C (dose: 200.0 mg/kg/injection, schedule: Q01DX009 (ip), vehicle: water) was 101 % of control.

`C(=C\c1cc2ccc(C3=NCCN3)cc2[nH]1)/c1ccc2cc(C3=NCCN3)[nH]c2c1`: the T/C is 105 % of control under setting [1]; 110 % of control (dose: 25.0 mg/kg/injection, schedule: Q01DX005 (ip), vehicle: Klucel (hydroxypropylcellulose) (HPC)); 108 % of control and 110 % of control (dose: 50.0 mg/kg/injection, schedule: Q01DX005 (ip), vehicle: Klucel (hydroxypropylcellulose) (HPC)).

For `N#CCc1nc2ccccc2s1`, the T/C by setting is: (dose: 30.0 mg/kg/injection, schedule: Q01DX005 (ip), vehicle: saline with Tween-80) 102 % of control; under setting [2], 107 % of control; under setting [3], 102 % of control.

For the compound `O=C(NO)C(O)C(O)C(O)CO` (centres undefined), the T/C runs as follows: under setting [4], 101 % of control; under setting [5], 104 % of control; under setting [6], 104 % of control.

Turning to `Cc1cc(C=C2C(=O)NC(=O)NC2=O)cc(C)c1O`, the T/C was 108 % of control (dose: 12.5 mg/kg/injection, schedule: Q01DX005 (ip), vehicle: saline with Tween-80); 103 % of control (dose: 25.0 mg/kg/injection, schedule: Q01DX005 (ip), vehicle: saline with Tween-80); 105 % of control and 119 % of control under setting [7]; 117 % of control under setting [8].

Consider `Clc1ccc(SCc2csc(-c3ccc(Cl)cc3)n2)cc1`, for which the T/C was 104 % of control under setting [4], 111 % of control under setting [5] and 104 % of control under setting [6].

Consider `COc1ccc(-c2c(N)cnc(C(=O)O)c2C)c(O)c1OC`, for which the T/C was 95 % of control (dose: 12.5 mg/kg/injection, schedule: Q01DX009 (ip), vehicle: other); 104 % of control (dose: 25.0 mg/kg/injection, schedule: Q01DX009 (ip), vehicle: other); 112 % of control (dose: 50.0 mg/kg/injection, schedule: Q01DX009 (ip), vehicle: other); 95 % of control (dose: 100.0 mg/kg/injection, schedule: Q01DX009 (ip), vehicle: other); 100 % of control (dose: 200.0 mg/kg/injection, schedule: Q01DX009 (ip), vehicle: other).

With `CC(=O)CC(C)=NCCN=C(C)CC(C)=O.C[CH2][Sn][CH2]C`, the T/C by setting is: (dose: 12.5 mg/kg/injection, schedule: Q04DX003 (ip), vehicle: saline) 106 % of control; (dose: 25.0 mg/kg/injection, schedule: Q04DX003 (ip), vehicle: saline) 105 % of control; (dose: 50.0 mg/kg/injection, schedule: Q04DX003 (ip), vehicle: saline) 120 % of control; (dose: 100.0 mg/kg/injection, schedule: Q04DX003 (ip), vehicle: saline) 150 % of control.

As for `O=c1sc2ccccc2nc1NNc1ccccc1`, the T/C is 90 % of control under setting [7] and 90 % of control under setting [8].

Turning to `CC(CC(=O)c1ccccc1)C(Sc1ccccc1)(Sc1ccccc1)Sc1ccccc1` (centres undefined), the T/C is, setting by setting: under setting [9], 93 % of control; under setting [10], 90 % of control; under setting [11], 89 % of control.

In the case of `C=CCN(CC=C)C(=O)Nc1cc(OC)ccc1OC`, the T/C under setting [2] was 97 % of control, the T/C under setting [3] is 97 % of control and the T/C under setting [12] was 103 % of control.

`CC(OC(=O)Nc1cccc2ccccc12)C(N)=O` (centres undefined): the T/C is, setting by setting: under setting [13], 91 % of control; under setting [14], 95 % of control; (dose: 400.0 mg/kg/injection, schedule: Q04DX003 (ip), vehicle: Klucel (hydroxypropylcellulose) (HPC)) 96 % of control.

In the case of `Cc1c(C)c2ccc(N(C)C)cc2[nH]c1=O`, the T/C is, setting by setting: under setting [9], 113 % of control; under setting [10], 106 % of control; under setting [11], 106 % of control.

On to `C=CCC1(C)C=C(C)C(=O)C(C)=C1`, for which the T/C is, setting by setting: under setting [2], 105 % of control; under setting [3], 102 % of control; under setting [12], 104 % of control.

Regarding `CN(C)CC(CN(C)C)C(=O)c1ccc2c(c1)OCO2`, the T/C is, setting by setting: (dose: 15.0 mg/kg/injection, schedule: Q01DX005 (ip), vehicle: saline) 122 % of control; (dose: 30.0 mg/kg/injection, schedule: Q01DX005 (ip), vehicle: saline) 117 % of control; (dose: 60.0 mg/kg/injection, schedule: Q01DX005 (ip), vehicle: saline) 119 % of control.

With `COc1cc(/C=C/C(NC(C)=O)c2cccc(O)c(=O)c2)cc(OC)c1OC` (centres undefined), the T/C (dose: 12.5 mg/kg/injection, schedule: Q01DX009 (ip), vehicle: Klucel (hydroxypropylcellulose) (HPC)) is 90 % of control; the T/C (dose: 25.0 mg/kg/injection, schedule: Q01DX009 (ip), vehicle: Klucel (hydroxypropylcellulose) (HPC)) is 93 % of control; the T/C under setting [9] was 98 % of control; the T/C under setting [10] is 107 % of control; the T/C under setting [11] was 116 % of control.

For `COc1ccc(C(C)c2cc3c(cc2OCCO)OCO3)cc1OC` (centres undefined), the T/C (dose: 50.0 mg/kg/injection, schedule: Q01DX005 (ip), vehicle: distilled water + Tween-80) was 97 % of control; the T/C (dose: 100.0 mg/kg/injection, schedule: Q01DX005 (ip), vehicle: distilled water + Tween-80) is 93 % of control; the T/C (dose: 200.0 mg/kg/injection, schedule: Q01DX005 (ip), vehicle: distilled water + Tween-80) was 97 % of control.

Consider `COc1ccc(C(C)(c2cc(C(C)(C)C)c(O)c(C(C)(C)C)c2)n2ccnc2)cc1` (centres undefined), for which the T/C under setting [7] is 98 % of control; the T/C under setting [8] is 94 % of control; the T/C (dose: 200.0 mg/kg/injection, schedule: Q01DX005 (ip), vehicle: saline with Tween-80) was 91 % of control.

As to `COC1C=C(C)C(=O)O1` (centres undefined), the T/C was 106 % of control (dose: 50.0 mg/kg/injection, schedule: Q01DX005 (ip), vehicle: saline); 101 % of control (dose: 100.0 mg/kg/injection, schedule: Q01DX005 (ip), vehicle: saline); 101 % of control (dose: 200.0 mg/kg/injection, schedule: Q01DX005 (ip), vehicle: saline).

Consider `Cc1ccc(-n2c(N)c(C#N)c3c(c2=S)CCC3)cc1`, for which the T/C is 100 % of control (dose: 50.0 mg/kg/injection, schedule: Q01DX005 (ip), vehicle: Klucel + Tween-80); 107 % of control (dose: 100.0 mg/kg/injection, schedule: Q01DX005 (ip), vehicle: Klucel + Tween-80); 96 % of control (dose: 200.0 mg/kg/injection, schedule: Q01DX005 (ip), vehicle: Klucel + Tween-80).

As to `O=[N+]([O-])c1ccc(NN=C2CCCCC2)c([N+](=O)[O-])c1`, the T/C was 103 % of control (dose: 25.0 mg/kg/injection, schedule: Q04DX003 (ip), vehicle: Klucel (hydroxypropylcellulose) (HPC)); 104 % of control (dose: 50.0 mg/kg/injection, schedule: Q04DX003 (ip), vehicle: Klucel (hydroxypropylcellulose) (HPC)); 105 % of control under setting [13]; 112 % of control under setting [14].

For the compound `COc1ccc(/C=C/C(=N/NC(=O)c2ccccc2)C(C)CN(C)C)cc1` (centres undefined), the T/C is, setting by setting: (dose: 60.0 mg/kg/injection, schedule: Q01DX005 (ip), vehicle: Klucel (hydroxypropylcellulose) (HPC)) 104 % of control; (dose: 120.0 mg/kg/injection, schedule: Q01DX005 (ip), vehicle: Klucel (hydroxypropylcellulose) (HPC)) 111 % of control.
